Results reported in ChEMBL document CHEMBL1201862, “PubChem BioAssay data set” (2004).
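Briefly, cells in 96-well plates were exposed to five compound concentrations for 48 h, and endpoints were estimated by linear interpolation. The concentration for 50% growth inhibition is given as GI50.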 Active and inactive are the calls of the source. Cut-off read from the data, not from the text of the source: active = GI50 up to about 1.1 µM and inactive = higher.

How the values were obtained:
Assay in all cases: DTP human tumour cell line panel, 48 h
SK-MEL-28 = tested on: SK-MEL-28
HCT-116 = tested on: HCT-116
HT-29 = tested on: HT-29
SF-295 = tested on: SF-295
RXF 393 = tested on: RXF 393
OVCAR-8 = tested on: OVCAR-8
SK-OV-3 = tested on: SK-OV-3
SK-MEL-2 = tested on: SK-MEL-2
T47D = tested on: T47D
MCF7 = tested on: MCF7
786-0 = tested on: 786-0
U-251 = tested on: U-251
A549 = tested on: A549
TK-10 = tested on: TK-10
SNB-19 = tested on: SNB-19
SN12C = tested on: SN12C
HCT-15 = tested on: HCT-15

| Compound | GI50 (SK-MEL-28) | GI50 (HCT-116) | GI50 (HT-29) | GI50 (SF-295) | GI50 (RXF 393) | GI50 (OVCAR-8) | GI50 (SK-OV-3) | GI50 (SK-MEL-2) | GI50 (T47D) | GI50 (MCF7) | GI50 (786-0) | GI50 (U-251) | GI50 (A549) | GI50 (TK-10) | GI50 (SNB-19) | GI50 (SN12C) | GI50 (HCT-15) [µM] |
| --- | --- | --- | --- | --- | --- | --- | --- | --- | --- | --- | --- | --- | --- | --- | --- | --- | --- |
| CN(C)CCCn1nc(N)c2nc3cc(Cl)ccc3nc21 | 18.1 µM (inactive) | 30.3 µM (inactive) | 27.9 µM (inactive) | > 77.1 µM (inactive) | 30.6 µM (inactive) | 40.2 µM (inactive) | > 100 µM (inactive) | 28.3 µM (inactive) | 92.3 µM (inactive) | 33.3 µM (inactive) | 50.7 µM (inactive) | 44.8 µM (inactive) | 37.1 µM (inactive) | 54.7 µM (inactive) | 65.3 µM (inactive) | 59.8 µM (inactive) | 48.9 |
| N#C/C=c1/c2ccccc2n2nc3ccccc3c12 | > 100 µM (inactive) | 3.09 µM (inactive) | 25.6 µM (inactive) | 21.7 µM (inactive) | 16.8 µM (inactive) | 11.7 µM (inactive) | 5.65 µM (inactive) | 48.6 µM (inactive) | > 100 µM (inactive) | 11.3 µM (inactive) | 5.01 µM (inactive) | 12 µM (inactive) | 30.2 µM (inactive) | 8.02 µM (inactive) | 16 µM (inactive) | 25.2 µM (inactive) | 43.3 |
| Cc1nc(Nc2ccccc2Cl)sc1C(=O)CC(=O)C(=O)Nc1c(Cl)cccc1Cl | 26.2 µM (inactive) | 18.8 µM (inactive) | 25.4 µM (inactive) | 27.5 µM (inactive) | 23.4 µM (inactive) | 29.4 µM (inactive) | 29.1 µM (inactive) | 16.1 µM (inactive) | 22.8 µM (inactive) | 28.2 µM (inactive) | 24.3 µM (inactive) | 24.9 µM (inactive) | 24.9 µM (inactive) | > 100 µM (inactive) | 63.8 µM (inactive) | 44 µM (inactive) | 33.3 |
| COc1ccc(C2CCc3c(cnc4nc(N)nc(N)c34)C2)cc1 (configuration not stated) | 96.4 µM (inactive) | 1.73 µM (inactive) | 4.69 µM (inactive) | 7.26 µM (inactive) | 16.8 µM (inactive) | 5.4 µM (inactive) | 18.1 µM (inactive) | 47.4 µM (inactive) | 31 µM (inactive) | 15.8 µM (inactive) | 3.7 µM (inactive) | 9.29 µM (inactive) | 6.43 µM (inactive) | 12.8 µM (inactive) | 33.7 µM (inactive) | 7.16 µM (inactive) | 5.15 |
| CC1(C)OC[C@@H](/C=C\CCO[Si](c2ccccc2)(c2ccccc2)C(C)(C)C)N1C(=O)c1ccccc1 | 30.3 µM (inactive) | 3.41 µM (inactive) | 4.14 µM (inactive) | 13.1 µM (inactive) | 6.84 µM (inactive) | 15.8 µM (inactive) | 48.2 µM (inactive) | 5.24 µM (inactive) | 4.06 µM (inactive) | 6.32 µM (inactive) | 11.6 µM (inactive) | 12.7 µM (inactive) | 3.59 µM (inactive) | 11.2 µM (inactive) | 17.9 µM (inactive) | 11.1 µM (inactive) | 5.13 |
| O=c1c2ccccc2n2c(S)nnc2n1-c1ccccc1 | > 100 µM (inactive) | > 100 µM (inactive) | > 100 µM (inactive) | > 100 µM (inactive) | > 100 µM (inactive) | > 100 µM (inactive) | > 100 µM (inactive) | > 100 µM (inactive) | > 100 µM (inactive) | > 100 µM (inactive) | > 100 µM (inactive) | > 100 µM (inactive) | > 100 µM (inactive) | > 100 µM (inactive) | > 100 µM (inactive) | > 100 µM (inactive) | > 100 |
| Cc1ccc(/N=N/c2ccc(O)c(CN(C)C)c2)cc1 | 20 µM (inactive) | 22.5 µM (inactive) | 17.2 µM (inactive) | 18.1 µM (inactive) | 4.66 µM (inactive) | 21.4 µM (inactive) | 32.7 µM (inactive) | 15.2 µM (inactive) | 13.7 µM (inactive) | 24.2 µM (inactive) | 22.3 µM (inactive) | 32.1 µM (inactive) | 20.3 µM (inactive) | 21.7 µM (inactive) | 36.6 µM (inactive) | 35.8 µM (inactive) | 20.6 |
| COc1ccc(C(C)NNC(=O)c2ccncc2)c(OC)c1 (configuration not stated) | > 100 µM (inactive) | > 100 µM (inactive) | > 100 µM (inactive) | > 100 µM (inactive) | > 100 µM (inactive) | > 100 µM (inactive) | > 100 µM (inactive) | > 100 µM (inactive) | > 100 µM (inactive) | > 100 µM (inactive) | > 100 µM (inactive) | > 100 µM (inactive) | > 100 µM (inactive) | > 100 µM (inactive) | > 100 µM (inactive) | > 100 µM (inactive) | > 100 |
| CCO/N=C\c1ccc2oc(-c3ccccc3)cc(=O)c2c1 | 28.8 µM (inactive) | 0.181 µM (active) | 0.0521 µM (active) | 0.191 µM (active) | 0.261 µM (active) | 0.465 µM (active) | 0.474 µM (active) | 0.127 µM (active) | 27.5 µM (inactive) | 0.31 µM (active) | 0.501 µM (active) | 0.628 µM (active) | 0.417 µM (active) | 2.26 µM (inactive) | 0.48 µM (active) | 0.303 µM (active) | 0.0475 |
| N=C(N)c1ccc(/N=N\c2c(O)c(C(=O)Nc3ccccc3)cc3ccccc23)cc1 | > 100 µM (inactive) | 3.3 µM (inactive) | 18.4 µM (inactive) | > 60.3 µM (inactive) | > 43.4 µM (inactive) | 16.1 µM (inactive) | > 32.6 µM (inactive) | 68.1 µM (inactive) | 17.4 µM (inactive) | 9.86 µM (inactive) | 10.8 µM (inactive) | 3.76 µM (inactive) | > 59.6 µM (inactive) | > 44.5 µM (inactive) | 19.6 µM (inactive) | 23.8 µM (inactive) | 18.1 |
| CC1=NN(C(=O)CC(=O)Nc2cccc(C)c2)C(=O)C1/N=N\c1ccc(S(=O)(=O)c2ccc(/N=N/C3C(=O)N(C(=O)CC(=O)Nc4cccc(C)c4)N=C3C)cc2)cc1 (configuration not stated) | > 100 µM (inactive) | > 100 µM (inactive) | > 100 µM (inactive) | > 100 µM (inactive) | > 100 µM (inactive) | > 100 µM (inactive) | > 100 µM (inactive) | > 100 µM (inactive) | > 100 µM (inactive) | > 100 µM (inactive) | > 100 µM (inactive) | > 100 µM (inactive) | > 100 µM (inactive) | > 100 µM (inactive) | > 100 µM (inactive) | > 100 µM (inactive) | > 100 |
| CC(=O)Nc1cc(C(=O)Nc2cc(C(=O)Nc3cc(C(=O)Nc4cc(C(=O)Nc5cc(C(=O)NCCC(=O)NCCCN(C)C)n(C)c5)n(C)c4)n(C)c3)n(C)c2)n(C)c1 | 67.6 µM (inactive) | 37.3 µM (inactive) | > 100 µM (inactive) | > 100 µM (inactive) | > 100 µM (inactive) | > 100 µM (inactive) | > 100 µM (inactive) | > 100 µM (inactive) | 31.5 µM (inactive) | 28.2 µM (inactive) | 63.7 µM (inactive) | 67.9 µM (inactive) | > 100 µM (inactive) | > 100 µM (inactive) | > 100 µM (inactive) | > 100 µM (inactive) | > 100 |
| O=C(c1ccco1)N(Cc1ccco1)C(=S)Nc1ccccc1 | 15 µM (inactive) | 6.37 µM (inactive) | 8.71 µM (inactive) | 32.2 µM (inactive) | 16 µM (inactive) | 19 µM (inactive) | > 100 µM (inactive) | 18.8 µM (inactive) | 14.1 µM (inactive) | 4.2 µM (inactive) | 6.3 µM (inactive) | 28.3 µM (inactive) | 29.7 µM (inactive) | 18.8 µM (inactive) | 46.9 µM (inactive) | 14.5 µM (inactive) | 9.2 |
| COc1ccc(C(SCC(N)C(=O)O)(c2ccc(OC)cc2)c2ccc(OC)cc2)cc1 (configuration not stated) | 11.8 µM (inactive) | 6.98 µM (inactive) | 10.6 µM (inactive) | 11.8 µM (inactive) | 8.47 µM (inactive) | 12.4 µM (inactive) | 21.2 µM (inactive) | 12 µM (inactive) | 12.2 µM (inactive) | 8.63 µM (inactive) | 13.4 µM (inactive) | 14.8 µM (inactive) | 17.1 µM (inactive) | 14.9 µM (inactive) | 14.1 µM (inactive) | 12.7 µM (inactive) | 11.6 |
| CN1CC(S(=O)(=O)c2ccccc2)CC(S(=O)(=O)c2ccccc2)C1c1ccccc1 (configuration not stated) | 15.9 µM (inactive) | 10.4 µM (inactive) | 14.8 µM (inactive) | 29.4 µM (inactive) | 14.9 µM (inactive) | 28.7 µM (inactive) | 39.1 µM (inactive) | 4.47 µM (inactive) | 18.2 µM (inactive) | 12.4 µM (inactive) | 12.2 µM (inactive) | 12.1 µM (inactive) | 32.7 µM (inactive) | 14.2 µM (inactive) | 23.4 µM (inactive) | 10.4 µM (inactive) | 12.4 |
| O=C1/C(=C/c2ccc([N+](=O)[O-])cc2)C(=O)N(c2ccccc2)C1c1ccccc1 (configuration not stated) | > 10 µM (inactive) | > 10 µM (inactive) | > 10 µM (inactive) | > 10 µM (inactive) | > 10 µM (inactive) | > 10 µM (inactive) | > 10 µM (inactive) | > 10 µM (inactive) | > 10 µM (inactive) | > 10 µM (inactive) | > 10 µM (inactive) | > 10 µM (inactive) | > 10 µM (inactive) | > 10 µM (inactive) | > 10 µM (inactive) | > 10 µM (inactive) | > 10 |
